Values quoted from earlier work in patent publication US20100240626A1, “ANTIEMETIC-ORAL CONTRACEPTIVE COMBINATION” (Lupin Limited, priority 2007, published 2010).

Conditions: 0.75 mg of levonorgestrel administered

patients experiencing nausea: about 23.1%
patients experiencing vomiting: 5.6%
Structure (SMILES): C#C[C@]1(O)CC[C@H]2[C@@H]3CCC4=CC(=O)CC[C@@H]4[C@H]3CC[C@@]21CC [levonorgestrel]
